Starred links: 1 amine or outer side, 2 acyl side, 3 side chain; linkers in the order of their positions; H or OH if unused. Non-standard residues stand in square brackets, D forms with d. Residues, ends and D or L forms follow the SMILES beside them. No end group written: not given here. *: point of attachment. X1 = O=C([C@H](Cc1c[nH]c2ccccc12)N(Cc1ccccc1)[*:1])[*:2]; Tos = Cc1ccc(S(=O)(=O)*)cc1
Columns and labels:
[1] = system: Erwinia amylovora PMV6076; experiment: Minimum inhibitory concentration (MIC), microbial growth by optical density; format: cell-based; details: 48 h incubation at 25° C., TSB medium
Protocol: (§1) Each experiment was performed twice.

[2] = system: Pseudomonas syringae EPS94; experiment: as above; format: cell-based; details: 48 h incubation at 25° C., TSB medium
Protocol: as §1

[3] = system: erythrocytes from fresh human blood; details: 5% erythrocytes, 1 h at 37° C., relative to 200 μM melittin; for % Haemolysis 50 μM: 50 μM peptide; for % Haemolysis 150 μM: 150 μM peptide; for % Haemolysis 250 μM: 250 μM peptide
Protocol: A description of the methodology used to determine the haemolytic activity is found in Oren et al, Biochemistry, 2000, 39, 6103-6114, and in Raguse et al., J. Am. Chem. Soc., 2002, 124, 12774-12785.
The haemolytic activity of the peptides of the invention was evaluated by determining the release of haemoglobin which is produced on placing in contact a solution of the peptides with a suspension of erythrocytes 5% by volume, from fresh human blood.
The blood was collected aseptically using a Vactainer® K2E system (Belliver, Great Britain) with EDTA and it was stored at 4° C. for a period lower than 2 hours.
The blood was centrifuged at 6000 g for 5 minutes to separate the erythrocytes. There were washed three times with TRIS buffer (10 mM TRIS, 150 mM NaCl, pH 7.2) and they were resuspended in TRIS buffer until obtaining a suspension which contained 10% by volume of erythrocytes.
The peptides were solubilized in TRIS buffer until a final concentration of 100, 300 and 500 μM
The replicas were used for each peptide and concentration.
65 μl of 10% erythrocyte suspension was mixed with 65 μl of the peptide solution in each well of a 96-well plate (Micro-Amp®, Applied Biosystems, USA) (5% by volume of erythrocytes) and the mixture was incubated for 1 h at 37° C. under stirring. In this way, the erythrocyte suspensions were subjected to peptide concentrations of 50, 150 and 250 μM.
Next, the plates were centrifuged at 3500 g during 10 minutes and aliquots were transferred of 80 μl of supernatant to microplates with 100 wells (Bioscreen), which were diluted with 80 μl of milli-Q water.
The degree of haemolysis was determined from the absorbance at 540 nm with a Bioscreen plate reader.
The complete positive haemolysis control was determined in a TRIS buffer solution which contained 200 μM melittin (Sigma-Aldrich, Spain)
The percentage of haemolysis (H) was determined using the following equation: H=100×[Op−Ob)/(Om−Ob)]
Where OP as the optical density measured for a determined peptide concentration, Ob was the optical density of the buffer solution, and Om was the optical density for the positive control with melittin.

[4] = system: Xanthomonas vesicatori 2133-2; experiment: Minimum inhibitory concentration (MIC), microbial growth by optical density; details: 48 h incubation at 25° C., TSB medium
Protocol: All the bacteria were stored at a temperature of −80° C. in Luria-Bertani (LB) medium supplemented with 20% glycerine in volume/volume.
In all cases they were resuspended in sterile water to obtain a suspension adjusted to an absorbance of 0.2 to 60 nm, which approximately corresponds to 10^8 colony forming units.
To determine the minimum inhibitory concentration (MIC), the peptides were solubilized in milli-Q sterile water until a final concentration of 1000 μM and they were filtered through a 0.22 μm pore size filter.
Dilutions of the peptides of the invention were made to obtained solutions at the concentrations of 750, 500, 250, 200, 150, 125, 100, 75, 50 and 25 μM.
20 μl of each dilution were mixed with 20 μl of the suspension of the corresponding bacterial indicator, and 160 μl of the TSB (Trypticase Soy Broth) liquid medium until a total volume of 200 μl in each well of a microplate.
Two replicas were carried out for each strain, concentration and peptide under study.
The positive controls contained water instead of peptide, and the negative controls contained the peptides without the bacterial suspension.
The microbial growth was determined automatically by optical density at 600 nm using the Microbiology Analyser Bioscreen C (Labsystems)
The microplates were incubated at 25° C. for 48 hours with stirring for 20 seconds before measuring the absorbance every hour. Each experiment was performed twice.

Proteinase K = Proteinase K (Parengyodontium album, UniProt P06873); experiment: in vitro; details: Proteinase K (1 μg/ml), pH 7.6
Sequence of Proteinase K (P06873 106-384): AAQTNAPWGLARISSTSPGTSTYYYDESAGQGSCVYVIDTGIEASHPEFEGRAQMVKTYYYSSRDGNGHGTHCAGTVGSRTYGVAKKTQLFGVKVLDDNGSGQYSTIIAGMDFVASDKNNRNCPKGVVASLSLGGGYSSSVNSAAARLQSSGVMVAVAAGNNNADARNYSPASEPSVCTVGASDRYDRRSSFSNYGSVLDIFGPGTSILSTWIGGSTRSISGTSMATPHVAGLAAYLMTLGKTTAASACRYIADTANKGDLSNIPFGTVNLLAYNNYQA
Protocol: The degradation is expressed as the percentage of peptide degraded after a determined time interval calculated from the decrease in the area of the peak of the native peptide by HPLC.
The stability of the peptides of the invention to degradation by proteases is determined by a peptide digestion test by Proteinase K (Sigma-Aldrich Corporation, Madrid, Spain).
A solution of 50 μg/ml of the peptide and 1 μg/ml of Proteinase K in 100 mM TRIS buffer at pH 7.6 was used, at ambient temperature.
The progress of the peptide excision was determined chromatographically at times between 5 and 45 minutes. To do this a reverse phase C18 column was used (Kromasil, 4.6×40 mm; 3.5 μm particle size), and linear gradients from 0.98:0.02 to 0:1 during 7 min performing the detection by absorbance in ultraviolet light at 220 nm.

| Molecule | range of concentrations including the MIC, E. amylovora [1] [µM] | range of concentrations including the MIC, P. syringae [2] [µM] | % Haemolysis 50 μM [3] [%] | % Haemolysis 150 μM [3] [%] | % Haemolysis 250 μM [3] [%] | range of concentrations including the MIC, X. vesicatoria [4] [µM] | metabolised at 0.75 h, 50 μg/ml (Proteinase K) [%] |
| --- | --- | --- | --- | --- | --- | --- | --- |
| CC[C@H](C)[C@H](NC(=O)[C@H](CCCCN)NC(=O)[C@H](CCCCN)NC(=O)[C@H](Cc1ccccc1)NC(=O)[C@H](CC(C)C)NC(=O)[C@H](CCCCN)NC(=O)[C@H](Cc1c[nH]c2ccccc12)NCc1ccccc1)C(=O)N[C@@H](CC(C)C)C(=O)N[C@@H](CCCCN)C(=O)N[C@H](C(=O)N[C@@H](CC(C)C)C(N)=O)C(C)C [BP011] (H-[X1]KLFKKILKVL-NH2) | 5 to 7.5 | 5 to 7.5 | 81 | 96 | 100 | 2.5 to 5 | – |
| CC[C@H](C)[C@H](NC(=O)[C@H](CCCCN)NC(=O)[C@H](CCCCN)NC(=O)[C@H](Cc1ccccc1)NC(=O)[C@H](CC(C)C)NC(=O)[C@H](CCCCN)NC(=O)[C@H](Cc1c[nH]c2ccccc12)NS(=O)(=O)c1ccc(C)cc1)C(=O)N[C@@H](CC(C)C)C(=O)N[C@@H](CCCCN)C(=O)N[C@H](C(=O)N[C@@H](CC(C)C)C(N)=O)C(C)C [BP009] (Tos-WKLFKKILKVL-NH2) | – | – | – | – | – | – | 100 |
| CC[C@H](C)[C@H](NC(=O)[C@H](CCCCN)NC(=O)[C@H](CCCCN)NC(=O)[C@H](Cc1ccccc1)NC(=O)[C@H](CC(C)C)NC(=O)[C@H](CCCCN)NC(=O)[C@H](CCCCN)NC(C)=O)C(=O)N[C@@H](CC(C)C)C(=O)N[C@@H](CCCCN)C(=O)N[C@@H](Cc1ccc(O)cc1)C(=O)N[C@@H](CC(C)C)C(N)=O [BP101] | >7.5 | 5 to 7.5 | 4 | 31 | 62 | 2.5 | – |
| CC[C@H](C)[C@H](NC(=O)[C@H](CCCCN)NC(=O)[C@H](CCCCN)NC(=O)[C@H](Cc1ccccc1)NC(=O)[C@H](CC(C)C)NC(=O)[C@H](CCCCN)NC(=O)[C@@H](N)Cc1ccc(O)cc1)C(=O)N[C@@H](CC(C)C)C(=O)N[C@@H](CCCCN)C(=O)N[C@@H](Cc1ccc(O)cc1)C(=O)N[C@@H](CC(C)C)C(N)=O [BP095] | 5 to 7.5 | 5 to 7.5 | 7 | 50 | 76 | 2.5 to 5 | – |
| CC[C@H](C)[C@H](NC(=O)[C@H](CCCCN)NC(=O)[C@H](CCCCN)NC(=O)[C@H](Cc1ccccc1)NC(=O)[C@H](CC(C)C)NC(=O)[C@H](CCCCN)NC(=O)[C@H](CCCCN)NC(C)=O)C(=O)N[C@@H](CC(C)C)C(=O)N[C@@H](CCCCN)C(=O)N[C@@H](Cc1c[nH]c2ccccc12)C(=O)N[C@@H](CC(C)C)C(N)=O [BP053] | >7.5 | 5 to 7.5 | 60 | 82 | 85 | 2.5 to 5 | – |
| Ac-WKLFKKILKWL-NH2 [BP038] | >7.5 | >7.5 | 80 | 86 | 80 | <2.5 | – |
| LKLFKKILKFL-NH2 [BP081] | 2.5 to 5 | 2.5 to 5 | 10 | 65 | 88 | <2.5 | – |
| CC[C@H](C)[C@H](NC(=O)[C@H](CCCCN)NC(=O)[C@H](CCCCN)NC(=O)[C@H](Cc1ccccc1)NC(=O)[C@H](CC(C)C)NC(=O)[C@H](CCCCN)NC(=O)[C@@H](N)CCCCN)C(=O)N[C@@H](CC(C)C)C(=O)N[C@@H](CCCCN)C(=O)N[C@@H](Cc1c[nH]c2ccccc12)C(=O)N[C@@H](CC(C)C)C(N)=O [BP052] | 2.5 to 5 | 5 | 51 | 84 | 79 | 2.5 to 5 | – |
| CC[C@H](C)[C@H](NC(=O)[C@H](CCCCN)NC(=O)[C@H](CCCCN)NC(=O)[C@H](Cc1ccccc1)NC(=O)[C@H](CC(C)C)NC(=O)[C@H](CCCCN)NC(=O)[C@@H](N)CCCCN)C(=O)N[C@@H](CC(C)C)C(=O)N[C@@H](CCCCN)C(=O)N[C@@H](Cc1ccc(O)cc1)C(=O)N[C@@H](CC(C)C)C(N)=O [BP100] | – | – | 3 | 22 | 43 | 5 to 7.5 | 60 |

— US8026219B2, “Antimicrobial linear peptides” (Universitat de Girona, priority 2006, dated 2011)
